Experimental findings from patent US20080318925A1 (ASTRAZENECA AB, priority 2007, published 2008) are described below.

Structures are written as SMILES.

The target in the experiment is T1, GABAA2 receptors (α2, β3, γ3 receptor subunits transfected into Sf9 cells) (Homo sapiens, UniProt P47869+Q99928).
T1 construct: host or cells: Sf9 cells (membranes)
T1 sequence (P47869 29-451): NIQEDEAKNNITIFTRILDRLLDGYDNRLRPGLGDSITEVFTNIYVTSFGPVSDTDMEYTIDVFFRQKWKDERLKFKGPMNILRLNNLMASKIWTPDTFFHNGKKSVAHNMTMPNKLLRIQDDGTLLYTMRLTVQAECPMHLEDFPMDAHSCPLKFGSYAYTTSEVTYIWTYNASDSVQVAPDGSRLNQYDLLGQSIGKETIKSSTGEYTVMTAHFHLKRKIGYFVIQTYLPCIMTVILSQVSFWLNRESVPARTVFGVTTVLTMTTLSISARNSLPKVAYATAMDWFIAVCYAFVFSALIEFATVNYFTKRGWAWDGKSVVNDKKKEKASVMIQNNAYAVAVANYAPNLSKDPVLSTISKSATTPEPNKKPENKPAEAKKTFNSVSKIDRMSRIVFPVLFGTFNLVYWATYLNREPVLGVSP
T1 sequence (P28472 26-473 partner): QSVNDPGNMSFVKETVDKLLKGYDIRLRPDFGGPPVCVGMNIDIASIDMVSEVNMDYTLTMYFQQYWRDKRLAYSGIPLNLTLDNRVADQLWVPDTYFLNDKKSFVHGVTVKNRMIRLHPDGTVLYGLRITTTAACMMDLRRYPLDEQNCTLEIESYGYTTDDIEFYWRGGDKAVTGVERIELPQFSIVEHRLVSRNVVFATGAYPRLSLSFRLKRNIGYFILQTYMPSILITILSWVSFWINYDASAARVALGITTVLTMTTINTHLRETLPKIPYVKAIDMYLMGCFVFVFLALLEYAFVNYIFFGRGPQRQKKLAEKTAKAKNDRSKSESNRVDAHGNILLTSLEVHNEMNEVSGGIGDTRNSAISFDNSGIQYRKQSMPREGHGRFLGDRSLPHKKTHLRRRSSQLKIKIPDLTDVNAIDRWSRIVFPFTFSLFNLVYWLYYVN
T1 sequence (Q99928 18-467): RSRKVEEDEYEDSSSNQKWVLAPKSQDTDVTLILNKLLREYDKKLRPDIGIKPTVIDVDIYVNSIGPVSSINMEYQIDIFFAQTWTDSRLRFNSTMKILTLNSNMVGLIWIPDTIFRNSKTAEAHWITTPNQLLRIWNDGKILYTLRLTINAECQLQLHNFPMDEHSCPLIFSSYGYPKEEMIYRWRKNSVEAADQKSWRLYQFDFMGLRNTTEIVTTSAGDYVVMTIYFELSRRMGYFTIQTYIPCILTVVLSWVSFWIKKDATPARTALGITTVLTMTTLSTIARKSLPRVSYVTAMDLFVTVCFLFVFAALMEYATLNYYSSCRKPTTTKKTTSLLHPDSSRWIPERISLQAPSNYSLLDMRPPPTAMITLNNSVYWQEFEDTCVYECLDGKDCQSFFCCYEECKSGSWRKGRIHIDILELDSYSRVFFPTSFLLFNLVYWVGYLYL
The experiment is described as follows: GABAA2 binding method ([3H]-flunitrazepam displacement). Particulars: [3H]-flunitrazepam ~2 nM, Sf9 membranes, 1 hr at 4° C. The procedure: In some embodiments, the binding test was directed to a subtype of GABAA receptors, such as GABAA1 receptors (i.e., those containing the α1 subunit), GABAA2 receptors (i.e., those containing the α2 subunit), GABAA3 receptors (i.e., those containing the α3 subunit) and GABAA5 receptors (i.e., those containing the α5 subunit).
• Assay and Wash Buffer: 50 mM Tris-Citrate, 200 mM NaCl, pH 7.8 Compounds at 10 mM in DMSO: Put 75 μl in column 1 of compound plate.
Flumazenil, 10 mM (for NSB)
[^3H]-Flunitrazepam (Cat #NET567): Prepare 10× stock=20 nM, [F} in assay=˜2 nM
1. […] Add 5 ul of 30 uM flumazenil to wells 12 D-E for 50% control wells.
2. Spot 2 μl of compound dilutions into dry plate (Automation Program 3). Manually spot 2 μl 10 mM flumazenil into wells 12 F-H for nonspecific control.
3. Make 1:100 dilution in assay buffer (2 μl into 200 μl) and dispense 25 μl compound into assay plates (Automation Program 4).
4. Dispense 200 μl membranes into assay plate (Automation Program 5).
5. Add 25 μl [^3H]-Flunitrazepam (Automation Program 6). Incubate for 1 hr at 4° C.
6. Collect membranes on a cell harvester onto GF/B filter plates (pre-wet with dH2O and wash 5× 400 μl/well, with cold assay buffer. (First 3 washes are considered hot; last two are cold.)
7. Dry plates for 2-3 hours at RT.
8. Add 40 μl Microscint 40/well (Automation Program 7); seal plates. Count on a TopCount.
Data is analyzed by calculating percent of control, IC50, and Ki in an XLfit template. The following formula is used in the templates: […]
For orientation: Ki means a dissociation constant, usually derived from enzyme kinetics or from competition with a known ligand. Compound `CCCNC(=O)c1nnc2c(-c3cc(Cl)ccc3OC)c(F)ccc2c1N` displayed a Ki of 0.327 nM. The same measure for `CCCNC(=O)c1nnc2c(-c3c(F)cccc3OC)c(F)ccc2c1N`: 0.341 nM. Consider `CCCNC(=O)c1nnc2c(-c3ccccc3C(F)(F)F)cccc2c1N`, for which the Ki is 0.364 nM. As to `CCCNC(=O)c1nnc2c(-c3cc(OC)cc(OC)c3)c(F)ccc2c1N`, affinity was put at a Ki of 0.552 nM. Turning to `CCCNC(=O)c1nnc2c(-c3cccc(F)c3F)cccc2c1N`, the Ki worked out at 0.558 nM. This Ki and that of the compound before are within 1.5-fold of each other.

For the compound `CCCNC(=O)c1nnc2c(-c3ccc(OC)nc3OC)cccc2c1N`, the affinity corresponds to a Ki of 0.56 nM. The same measure for `CCCNC(=O)c1nnc2c(-c3cncc(C(=O)N4CCC4)c3)cccc2c1N`: 2.34 nM; for `CCCNC(=O)c1nnc2c(-c3ccc(OC)cc3C(F)(F)F)cccc2c1N`: 2.42 nM. Regarding `CCCNC(=O)c1nnc2c(-c3ccc(OC)cc3OC)cccc2c1N`, affinity was put at a Ki of 2.5 nM. The Ki values of the last two compounds are within 1.5-fold of each other.

In turn, `CCCNC(=O)c1nnc2c(-c3cccnc3)cccc2c1N` showed a Ki of 2.6 nM. `CCCNC(=O)c1nnc2c(-c3ccc(OC)cc3OC)c(C#N)ccc2c1N` returned a Ki of 2.69 nM. The same measure for `CCCNC(=O)c1nnc2c(-c3cnc(OC)nc3OC)c(Cl)ccc2c1N`: 2.73 nM; for `CCCNC(=O)c1nnc2c(-c3ccc(OC)c(F)c3)c(F)ccc2c1N`: 2.88 nM.

On to `CCCNC(=O)c1nnc2c(-c3cc(C)ccc3OC)c(Cl)ccc2c1N`, for which the affinity corresponds to a Ki of 2.89 nM. For `CCCNC(=O)c1nnc2c(-c3cccc(OC)c3F)cccc2c1N` the value was 3.41 nM; for `CCCNC(=O)c1nnc2c(-c3cccc(C(=O)N4CCC4)c3)cccc2c1N`, 3.44 nM; for `CCCNC(=O)c1nnc2c(-c3ccc(OC)c(OC)c3)cccc2c1N`, 3.88 nM. Turning to `CCCNC(=O)c1nnc2c(-c3ccc(C)nc3)cccc2c1N`, the Ki came to 4.11 nM. The same measure for `CCCNC(=O)c1nnc2c(-c3ccc(OC)cc3F)cccc2c1N`: 4.17 nM. The same measure for `CCCNC(=O)c1nnc2c(-c3cncc(OC)c3)cccc2c1N`: 4.21 nM. For the compound `CCCNC(=O)c1nnc2c(-c3cccc(OC)c3)cccc2c1N`, the Ki came out at 4.34 nM. With `CCCNC(=O)c1nnc2c(-c3ccc(F)cc3OC)cccc2c1N`, affinity was put at a Ki of 4.34 nM. For `CCNC(=O)c1nnc2c(-c3cnccc3OC)cccc2c1N` the value was 4.36 nM; for `CCCNC(=O)c1nnc2c(-c3cc(OC)cc(OC)c3)cccc2c1N`, 5 nM; for `CCCNC(=O)c1nnc2c(-c3cc(F)ccc3C)cccc2c1N`, 5.56 nM. Turning to `CCCNC(=O)c1nnc2c(-c3ccc(OC)cc3OC)c(Cl)ccc2c1N`, the Ki was 5.71 nM.

On to `CCCNC(=O)c1nnc2c(-c3cc(F)cc(F)c3OC)c(F)ccc2c1N`, for which the Ki stood at 5.78 nM. The compound `CCCNC(=O)c1nnc2c(-c3ccccc3)c(Cl)ccc2c1N` had an inhibitory constant (Ki) of 5.82 nM. This Ki and that of the compound before are within 1.5-fold of each other. For `CCCNC(=O)c1nnc2c(-c3ccc(OC)c(OC)c3OC)cccc2c1N` the value was 6.75 nM; for `CCCNC(=O)c1nnc2c(-c3nc(Br)ccc3OC)cccc2c1N`, 7.51 nM. For `CCCNC(=O)c1nnc2c(-c3ccc(Cl)cc3)c(F)ccc2c1N` the value was 8.72 nM. Compound `CCCNC(=O)c1nnc2c(-c3ccc(F)cc3)cccc2c1N` yielded an inhibitory constant (Ki) of 9.58 nM. The Ki values of the last two compounds are within 1.5-fold of each other. Compound `CCCNC(=O)c1nnc2c(-c3cccc(S(C)(=O)=O)c3)cccc2c1N` showed a Ki of 10.4 nM. `CCCNC(=O)c1nnc2c(-c3cc(F)ccc3OC)cccc2c1N`: the affinity corresponds to a Ki of 10.5 nM. The Ki values of the last two compounds are within 1.5-fold of each other. The same measure for `CCNC(=O)c1nnc2c(-c3cc(C)ccc3OC)cccc2c1N`: 10.5 nM; for `CCCNC(=O)c1nnc2c(-c3cccc(F)c3OC)cccc2c1N`: 10.9 nM; for `CCCNC(=O)c1nnc2c(-c3cc(C)ccc3C)c(Cl)ccc2c1N`: 11.2 nM. For `CCCNC(=O)c1nnc2c(-c3cccc(Cl)c3)cccc2c1N` the value was 12.3 nM.

`CCCNC(=O)c1nnc2c(-c3cnc4ccccc4c3)cccc2c1N` gave a Ki of 12.3 nM. This counts as double-digit nanomolar. The compound `CCCCNC(=O)c1nnc2c(-c3cc(C)ccc3OC)cccc2c1N` displayed a Ki of 13.3 nM. This Ki and that of the compound before are within 1.5-fold of each other. As to `CCCNC(=O)c1nnc2c(-c3cc(OC)ccc3OC)c(Cl)ccc2c1N`, affinity was put at a Ki of 13.9 nM. The same measure for `CCNC(=O)c1nnc2c(-c3cnc(OC)nc3OC)cccc2c1N`: 14.4 nM; for `COc1ccc(C)cc1-c1cccc2c(N)c(C(=O)NC3CC3)nnc12`: 15.2 nM.

`CCCNC(=O)c1nnc2c(-c3ccc(OC)cc3)cccc2c1N` returned a Ki of 15.4 nM. For `CCCNC(=O)c1nnc2c(-c3cc(Cl)cc(Cl)c3)c(F)ccc2c1N` the value was 16.1 nM.

The compound `CCCNC(=O)c1nnc2c(-c3ccc(C)c(C)c3)cccc2c1N` yielded a Ki of 16.8 nM. `CCCNC(=O)c1nnc2c(-c3ccc(OC)c(C)c3)cccc2c1N` registered an inhibitory constant (Ki) of 17.6 nM. In turn, `CCCNC(=O)c1nnc2c(-c3cc(C(=O)N4CCC4)ccc3OC)cccc2c1N` gave a Ki of 18.4 nM.

Turning to `CCCNC(=O)c1nnc2c(-c3ccsc3)cccc2c1N`, affinity was put at a Ki of 18.6 nM.

Turning to `Nc1c(C(=O)NCC2CC2)nnc2c(-c3ccccc3)cccc12`, affinity was put at a Ki of 18.6 nM.

On to `CCCNC(=O)c1nnc2c(-c3ccccn3)cccc2c1N`, for which the affinity corresponds to a Ki of 19.4 nM. `CCCNC(=O)c1nnc2c(-c3cnc(OC)nc3)cccc2c1N` yielded a Ki of 19.5 nM. For `CCCNC(=O)c1nnc2c(-c3ccc(F)c(F)c3)cccc2c1N`, the Ki was determined as 20 nM. The Ki values of the last two compounds are within 1.5-fold of each other.

For the compound `CCCNC(=O)c1nnc2c(-c3ccc(OC)c(F)c3)cccc2c1N`, the affinity corresponds to a Ki of 20.2 nM. `CCCNC(=O)c1nnc2c(-c3cnccn3)cccc2c1N` had a Ki of 20.4 nM. This Ki and that of the compound before are within 1.5-fold of each other. For `CCCNC(=O)c1nnc2c(-c3cc(Cl)cc(Cl)c3)cccc2c1N` the value was 22 nM; for `CCCNC(=O)c1nnc2c(-c3cnc(OC)c(F)c3)cccc2c1N`, 22.1 nM. For `CCCNC(=O)c1nnc2c(-c3cnc(OC)c(Cl)c3)cccc2c1N`, the Ki was 25.4 nM. Compound `CCCNC(=O)c1nnc2c(-c3ccc(N(C)C)cc3)cccc2c1N` yielded a Ki of 26.6 nM. This Ki and that of the compound before are within 1.5-fold of each other. The same measure for `CCCNC(=O)c1nnc2c(-c3ccc(C)cc3)cccc2c1N`: 29 nM; for `CCCNC(=O)c1nnc2c(-c3ccc4[nH]ccc4c3)cccc2c1N`: 35 nM. The same measure for `CNC(=O)c1nnc2c(-c3cc(C)ccc3OC)cccc2c1N`: 35.8 nM.

Turning to `CCCNC(=O)c1nnc2c(-c3cc(C)c(OC)c(C)c3)cccc2c1N`, the affinity corresponds to a Ki of 35.8 nM. In the case of `CCCNC(=O)c1nnc2c(-c3ccc(Cl)cc3)cccc2c1N`, the Ki came out at 37.2 nM. For `CCCNC(=O)c1nnc2c(-c3ccc4ccccc4c3)cccc2c1N`, the Ki was 43.3 nM.

Compound `CCCNC(=O)c1nnc2c(-c3cc(F)ccc3F)c(F)ccc2c1N` registered a Ki of 45.8 nM. For `CCCNC(=O)c1nnc2c(-c3cccc(OC(F)(F)F)c3)cccc2c1N` the value was 47.8 nM; for `CCCNC(=O)c1nnc2c(-c3cccc(C(=O)O)c3)cccc2c1N`, 53.8 nM. In the case of `CCCNC(=O)c1nnc2c(-c3cc(OC)c(OC)c(OC)c3)cccc2c1N`, the Ki came out at 56.5 nM. The same measure for `CCCNC(=O)c1nnc2c(-c3ccccc3)c(OC)ccc2c1N`: 91.4 nM.
